The values below come from patent US20190203240A1, “METHODS FOR THE PRODUCTION OF RHAMNOSYLATED FLAVONOIDS” (Universitaet Hamburg, priority 2016, published 2019).

“And” between values parts separate entries of the source, which are not always exact repeats. Equal values may be shown once.

Holding throughout (format): cell-based, human
Experiment [1] concerns PGE2. Nature of the experiment: Anti-inflammatory potential: secreted PGE2 in stimulated NHEK (ELISA). The following applies: PMA - 1 μg/ml, reference at 10^−6M, cytokine type not given. The method, then: NHEK were pre-incubated for 24 h with the test compounds. The medium was replaced with the NHEK culture medium containing the inflammatory inducers (PMA or Poly I:C) and incubated for another 24 hours. Positive and negative controls ran in parallel. At the endpoint the culture supernatants were quantified of secreted IL-8, PGE2 and TNF-α, by means of ELISA.
(In an ELISA, binding on a coated surface is turned into a signal by an enzyme label.)

Experiment [2] relates to matrix metallopeptidase 1 (MMP-1). Nature of the experiment: MMP-1 release in UVA-irradiated NHDF (ELISA). The note with it: NHDF irradiated 15 J/cm^2 UVA, 10^−7M. As for the experimental part:
(§1) Tests were performed with normal human dermal fibroblast cultures at the 8th passage. Cells were grown in DMEM supplemented with glutamine at 2 mM, penicillin at 50 U/mL and streptomycin (50 μg/mL) and 10% of fetal calf serum (FCS) at 37° C. in a 5% CO2 atmosphere.
Human fibroblasts were cultured for 24 hours before the cells were pre-incubated with the test or reference compounds (dexamethasone) for another 24 hours. The medium was replaced by the irradiation medium (EBSS, CaCl2) 0.264 g/L, MgClSO4 0.2 g/L) containing the test compounds) and cells were irradiated with UVA (15 J/cm^2). The irradiation medium was replaced by culture medium including again the test compounds incubated for 48 hours. After incubation the quantity of matrix metallopeptidase 1 (MMP-1) in the culture supernatant was measured using an ELISA kit.

The test system of experiment [3] is hydrogen peroxide (DHR) in NHEK cells. Nature of the experiment: Protection against UV-induced H2O2 stress in NHEK (DHR probe, flow cytometry). The following applies: 180 mJ/cm^2 UVB (2839 mJ/cm^2 UVA), 100 μM. As for the experimental part:
Pre-incubated NHEK were incubated with the test compound for 24 h. Then the specific fluorescence probe for the measurement of hydrogen peroxide (DHR) or lipid peroxides (C11-fluor) was added and incubated for 45 min. Irradiation occurred with in H2O2 determination UVB at 180 mJ/cm^2 (+UVA at 2839 mJ/cm^2) or UVB at 240 mJ/cm^2 (+UVA at 3538 mJ/cm^2) in lipid peroxide, respectively, using a SOL500 Sun Simulator lamp. After irradiation the cells were post-incubated for 30 min before flow-cytometry analysis.

In experiment [4] the test system is VEGF. Nature of the experiment: Stimulation of VEGF release in NHDF (ELISA). The note with it: 72 hours, 1 μg/ml. The method, then: as §1
(§2) Fibroblasts were cultured for 24 hours before the cells were incubated with the test compounds for further 72 hours. After the incubation the culture supernatants were collected in order to measure the released quantities of procollagen I, VEGF, and fibronectin by means of ELISA. Reference test compounds were vitamin C (procollagen I), PMA (VEGF), and TGF-β (fibronectin).

For experiment [5], the system named is procollagen I. Nature of the experiment: Stimulation of procollagen I synthesis in NHDF (ELISA). The note with it: 72 hours, 20 μg/ml. As for the experimental part:
as §1, §2

For `C[C@@H]1C[C@H]2[C@@H]3CCC4=CC(=O)C=C[C@]4(C)[C@@]3(F)[C@@H](O)C[C@]2(C)[C@@]1(O)C(=O)CO` [Dexamethasone, reference compound], in experiment [1], the “% stim. control” value came to 92% and the “Cytokine [pg/mL] Mean” value is recorded as 1437 pg/mL. Moreover, the “Cytokine” value in experiment [1] (single values) is 1318 pg/mL and 1556 pg/mL. Besides, in experiment [2], the “MMP-1 % Irradiated control” value came out at 4%; the “MMP-1 % Protection” value came to 150%; the “MMP-1 (ng/ml), single replicates” value was 2.5 ng/mL and 3.1 ng/mL and 3.2 ng/mL; the “Mean MMP-1” value came to 2.9 ng/mL.
Take `COc1ccc(O)c(C(C)(C)C)c1` [BHA]: in experiment [3], the “H2O2 % irradiated control” value came out at 42%, the “H2O2 (AU) Mean” value was 776 AU and the “H2O2 Protection %” value was 70%. Moreover, the “H2O2 (AU) (DHR GMFI)” value in experiment [3] (single values) is 740 AU and 834 AU and 754 AU.
Regarding `CCCCCCCCCCCCCC(=O)O[C@@H]1[C@@H](C)[C@@]2(O)[C@@H](C=C(CO)C[C@]3(O)C(=O)C(C)=C[C@@H]23)[C@@H]2C(C)(C)[C@]12OC(C)=O` [PMA], in experiment [4], the “Mean VEGF” value amounted to 148 pg/mL, the “VEGF % Control” value is listed as 205% and the “VEGF % Stimulation” value was 105%. Moreover, the “VEGF” value in experiment [4] (single values) was 150 pg/mL and 143 pg/mL.
Consider `O=C1O[C@H]([C@@H](O)CO)C(O)=C1O` [Vitamin C], for which, in experiment [5], the “Procollagen I % Control” value stood at 316%, the “Procollagen I % Stimulation” value came to 216% and the “Procollagen I Mean” value turned out to be 5272 ng/mL. Further, the “Procollagen I” value in experiment [5] (single values) was 4739 ng/mL and 5854 ng/mL and 5225 ng/mL.
